Columns and labels:
Assay type in all cases: in vivo
[1] = system: Velvetleaf; assay: Pre-emergent herbicidal activity (Table A); conditions: Vele, 11.2 kg/ha, 10-14 days; for inhibition at 11200 g/ha: Abutilon theophrasti, pre-emergence, read-out: herbicidal rating (% inhibition)
In short: (§1)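 Seeds or perennial propagules set on compacted topsoil, then covered with soil mixed with a known amount of test compound applied in acetone or water carrier. Ratings assigned on a scale based on percent inhibition of each species.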

[2] = system: Cocklebur; assay: Pre-emergent herbicidal activity (Table A); conditions: Cobu, 11.2 kg/ha, 10-14 days; for inhibition at 11200 g/ha: Xanthium strumarium, pre-emergence, read-out: herbicidal rating (% inhibition)
In short: as §1

[3] = system: Downy Brome; assay: Pre-emergent herbicidal activity (Table A); conditions: Dobr, 11.2 kg/ha, 10-14 days; for inhibition at 11200 g/ha: Bromus tectorum, pre-emergence, read-out: herbicidal rating (% inhibition)
In short: as §1

[4] = system: Yellow Nutsedge; assay: Pre-emergent herbicidal activity (Table A); conditions: Yens, 11.2 kg/ha, 10-14 days; for inhibition at 11200 g/ha: Cyperus, pre-emergence, read-out: herbicidal rating (% inhibition)
In short: as §1

[5] = system: Quackgrass; assay: Pre-emergent herbicidal activity (Table A); conditions: Rhqg, 11.2 kg/ha, 10-14 days
In short: as §1

[6] = system: Rhizome Johnsongrass; assay: Pre-emergent herbicidal activity (Table A); conditions: Rhjg, 11.2 kg/ha, 10-14 days
In short: as §1

[7] = system: Barnyardgrass; assay: Pre-emergent herbicidal activity (Table A); conditions: Bygr, 11.2 kg/ha, 10-14 days; for inhibition at 11200 g/ha: Echinochloa crus-galli, pre-emergence, read-out: herbicidal rating (% inhibition)
In short: as §1

[8] = system: Pennsylvania Smartweed; assay: Pre-emergent herbicidal activity (Table A); conditions: Pesw, 11.2 kg/ha, 10-14 days
In short: as §1

[9] = system: Common Lambsquarters; assay: Pre-emergent herbicidal activity (Table A); conditions: Colq, 11.2 kg/ha, 10-14 days
In short: as §1

[10] = system: Canada thistle; assay: Pre-emergent herbicidal activity (Table A); conditions: Cath, 11.2 kg/ha, 10-14 days
In short: as §1

[11] = system: Morningglory; assay: Pre-emergent herbicidal activity (Table A); conditions: Mogl, 11.2 kg/ha, 10-14 days; for inhibition at 11200 g/ha: Ipomoea, pre-emergence, read-out: herbicidal rating (% inhibition)
In short: as §1

[12] = system: Barnyardgrass; assay: Post-emergence herbicidal activity (Table C); conditions: Bygr, 11.2 kg/ha, 10-14 days
From the text: (§2) In the tests which follow, larger and more developed plants were used.
(§3) The post-emergent herbicidal activity index used in Table C is as follows:
(§4) Top soil was placed in pans having holes in the bottom and compacted to a depth of 0.95 to 1.27 cm. from the top of the pan. A predetermined number of seeds of each of several dicotyledonous and monocotyledonous annual plant species and/or vegetative propagules for the perennial plant species were placed on the soil and pressed into the soil surface. The seeds and/or vegetative propagules were covered with soil and leveled. The pans were then placed on a bench in the greenhouse and watered as needed for germination and growth. After the plants reached the desired age (two to three weeks), each pan (except the control pans) was moved to a spraying chamber and sprayed by means of an atomizer. […] The plant identifying codes in Table C are the same as above defined.

[13] = system: Common Lambsquarters; assay: Post-emergence herbicidal activity (Table C); conditions: Colq, 11.2 kg/ha, 10-14 days
From the text: as §2, §3, §4

[14] = system: Velvetleaf; assay: Post-emergence herbicidal activity (Table C); conditions: Vele, 11.2 kg/ha, 10-14 days
From the text: (§5) The post-emergent activity is best seen on younger plants treated at the 11/2 to 2 leaf stage. In the tests which follow, larger and more developed plants were used.
as §3
as §4, with “atomizer. The spray solution or suspension contained about 0.4% by volume of an emulsifying agent and a sufficient amount of the candidate chemical to give an application rate of the active ingredient of 11.2 kg/ha while applying a total amount of solution or suspension equivalent to 1870 L/ha.” for “atomizer.”

[15] = system: Cocklebur; assay: Post-emergence herbicidal activity (Table C); conditions: Cobu, 11.2 kg/ha, 10-14 days
From the text: as §5, §3
as §4, with “atomizer. The spray solution or suspension contained about 0.4% by volume of an emulsifying agent and a sufficient amount of the candidate chemical to give an application rate of the active ingredient of 11.2 kg/ha while applying a total amount of solution or suspension equivalent to 1870 L/ha.” for “atomizer.”

[16] = system: Downy Brome; assay: Post-emergence herbicidal activity (Table C); conditions: Dobr, 11.2 kg/ha, 10-14 days
From the text: as §5, §3
as §4, with “atomizer. The spray solution or suspension contained about 0.4% by volume of an emulsifying agent and a sufficient amount of the candidate chemical to give an application rate of the active ingredient of 11.2 kg/ha while applying a total amount of solution or suspension equivalent to 1870 L/ha.” for “atomizer.”

[17] = system: Yellow Nutsedge; assay: Post-emergence herbicidal activity (Table C); conditions: Yens, 11.2 kg/ha, 10-14 days
From the text: as §5, §3
as §4, with “atomizer. The spray solution or suspension contained about 0.4% by volume of an emulsifying agent and a sufficient amount of the candidate chemical to give an application rate of the active ingredient of 11.2 kg/ha while applying a total amount of solution or suspension equivalent to 1870 L/ha.” for “atomizer.”

[18] = system: Quackgrass; assay: Post-emergence herbicidal activity (Table C); conditions: Rhqg, 11.2 kg/ha, 10-14 days
From the text: as §5, §3
as §4, with “atomizer. The spray solution or suspension contained about 0.4% by volume of an emulsifying agent and a sufficient amount of the candidate chemical to give an application rate of the active ingredient of 11.2 kg/ha while applying a total amount of solution or suspension equivalent to 1870 L/ha.” for “atomizer.”

[19] = system: Rhizome Johnsongrass; assay: Post-emergence herbicidal activity (Table C); conditions: Rhjg, 11.2 kg/ha, 10-14 days
From the text: as §5, §3
as §4, with “atomizer. The spray solution or suspension contained about 0.4% by volume of an emulsifying agent and a sufficient amount of the candidate chemical to give an application rate of the active ingredient of 11.2 kg/ha while applying a total amount of solution or suspension equivalent to 1870 L/ha.” for “atomizer.”

[20] = system: Pennsylvania Smartweed; assay: Post-emergence herbicidal activity (Table C); conditions: Pesw, 11.2 kg/ha, 10-14 days
From the text: as §5, §3
as §4, with “atomizer. The spray solution or suspension contained about 0.4% by volume of an emulsifying agent and a sufficient amount of the candidate chemical to give an application rate of the active ingredient of 11.2 kg/ha while applying a total amount of solution or suspension equivalent to 1870 L/ha.” for “atomizer.”

[21] = system: Canada thistle; assay: Post-emergence herbicidal activity (Table C); conditions: Cath, 11.2 kg/ha, 10-14 days
From the text: as §5, §3
as §4, with “atomizer. The spray solution or suspension contained about 0.4% by volume of an emulsifying agent and a sufficient amount of the candidate chemical to give an application rate of the active ingredient of 11.2 kg/ha while applying a total amount of solution or suspension equivalent to 1870 L/ha.” for “atomizer.”

[22] = system: Morningglory; assay: Post-emergence herbicidal activity (Table C); conditions: Mogl, 11.2 kg/ha, 10-14 days
From the text: as §5, §3
as §4, with “atomizer. The spray solution or suspension contained about 0.4% by volume of an emulsifying agent and a sufficient amount of the candidate chemical to give an application rate of the active ingredient of 11.2 kg/ha while applying a total amount of solution or suspension equivalent to 1870 L/ha.” for “atomizer.”

[23] = system: Seedling Johnsongrass; assay: Pre-emergent herbicidal activity (Table A); conditions: Sorghum halepense, pre-emergence, Sejg, 11.2 kg/ha, 10-14 days, read-out: herbicidal rating (% inhibition)
In short: (§6)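 Seeds were sown on compacted topsoil and covered with soil into which test compound (in acetone or water carrier) had been mixed at 11.2 kg/ha. Pans were kept watered on a greenhouse bench, and percent inhibition was scored as a rating about 10-14 days (usually 11) after treatment.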

[24] = system: Indian Mustard; assay: Pre-emergent herbicidal activity (Table A); conditions: Brassica juncea, pre-emergence, Inmu, 11.2 kg/ha, 10-14 days, read-out: herbicidal rating (% inhibition)
In short: as §6

[25] = system: Wild Buckwheat; assay: Pre-emergent herbicidal activity (Table A); conditions: Fallopia convolvulus, pre-emergence, Wibw, 11.2 kg/ha, 10-14 days, read-out: herbicidal rating (% inhibition)
In short: as §6

[26] = system: Annual Bluegrass; assay: Pre-emergent herbicidal activity (Table A); conditions: pre-emergence, Anbg, 11.2 kg/ha, 10-14 days, read-out: herbicidal rating (% inhibition)
In short: as §6

3-pyridinecarboxylic acid, 5-(aminocarbonyl)-1,2,3,4-tetrahydro-4-(2-methylpropyl)-6-(pentafluoroethyl)-, ethyl ester [Compound 10]
herbicidal rating (% inhibition) [1]: 0 (0-24) | herbicidal rating (% inhibition) [2]: 0 (0-24) | herbicidal rating (% inhibition) [3]: 0 (0-24) | herbicidal rating (% inhibition) [4]: 0 (0-24) | herbicidal rating (% inhibition) [5]: 0 (0-24) | herbicidal rating (% inhibition) [6]: 0 (0-24) | herbicidal rating (% inhibition) [7]: 0 (0-24) | herbicidal rating (% inhibition) [8]: 0 (0-24) | herbicidal rating (% inhibition) [9]: 0 (0-24) | herbicidal rating (% inhibition) [10]: 0 (0-24) | herbicidal rating (% inhibition) [11]: 0 (0-24) | post-emergent herbicidal activity index [12]: 0 (0-24% inhibition) | post-emergent herbicidal activity index [13]: 0 (0-24% inhibition) | post-emergent herbicidal activity index [14]: 0 (0-24% inhibition) | post-emergent herbicidal activity index [15]: 0 (0-24% inhibition) | post-emergent herbicidal activity index [16]: 0 (0-24% inhibition) | post-emergent herbicidal activity index [17]: 0 (0-24% inhibition) | post-emergent herbicidal activity index [18]: 0 (0-24% inhibition) | post-emergent herbicidal activity index [19]: 0 (0-24% inhibition) | post-emergent herbicidal activity index [20]: 0 (0-24% inhibition) | post-emergent herbicidal activity index [21]: 0 (0-24% inhibition) | post-emergent herbicidal activity index [22]: 0 (0-24% inhibition)

COC(=O)c1c(OC)nc(C(F)(F)F)c(N=C2CCCO2)c1CC(C)C [Compound 121, 3-pyridinecarboxylic acid, 5-[(dihydro-2(3H)-furanylidene)amino]-2-methoxy-4-(2-methylpropyl)-6-(trifluoromethyl)-, methyl ester]
inhibition at 11200 g/ha [23]: 75 to 100% | inhibition at 11200 g/ha [24]: 75 to 100% | inhibition at 11200 g/ha [25]: 75 to 100% | inhibition at 11200 g/ha [26]: 75 to 100% | inhibition at 11200 g/ha [1]: 75 to 100% | inhibition at 11200 g/ha [2]: 75 to 100% | inhibition at 11200 g/ha [3]: 75 to 100% | inhibition at 11200 g/ha [4]: 50 to 74% | inhibition at 11200 g/ha [7]: 75 to 100% | inhibition at 11200 g/ha [11]: 50 to 74%

COC(=O)c1c(OC)nc(C(F)(F)F)c(C(=O)n2cc(NC(C)=O)cn2)c1CC(C)C [Compound 107, 3-pyridinecarboxylic acid, 5-[[4-(acetylamino)-1H-pyrazol-1-yl]carbonyl]-2-methoxy-4-(2-methylpropyl)-6-(trifluoromethyl)-, methyl ester]
inhibition at 11200 g/ha [23]: 75 to 100% | inhibition at 11200 g/ha [24]: 75 to 100% | inhibition at 11200 g/ha [25]: 50 to 74% | inhibition at 11200 g/ha [26]: 75 to 100% | inhibition at 11200 g/ha [1]: 75 to 100% | inhibition at 11200 g/ha [2]: 0 to 24% | inhibition at 11200 g/ha [3]: 0 to 24% | inhibition at 11200 g/ha [4]: 0 to 24% | inhibition at 11200 g/ha [7]: 75 to 100% | inhibition at 11200 g/ha [11]: 75 to 100%

Source: patent US5391540A, “Substituted pyridine compounds” (Rohm and Haas Company, priority 1993, dated 1995)
